Legend:
Assay type in all cases: functional
UO-31 = assay: Cytotoxicity against human UO31 cells assessed as growth inhibition at 10 uM after 48 hrs by coulter counter analysis; settings: UO-31, 48 h, read-out: GI
U-251 = assay: Cytotoxicity against human U251 cells assessed as growth inhibition at 10 uM after 48 hrs by coulter counter analysis; settings: U-251, 48 h, read-out: GI
OVCAR-8 = assay: Cytotoxicity against human OVCAR8 cells assessed as growth inhibition at 10 uM after 48 hrs by coulter counter analysis; settings: OVCAR-8, 48 h, read-out: GI
HCC 2998 = assay: Cytotoxicity against human HCC2998 cells assessed as growth inhibition at 10 uM after 48 hrs by coulter counter analysis; settings: HCC 2998, 48 h, read-out: GI
SK-MEL-5 = assay: Cytotoxicity against human SK-MEL-5 cells assessed as growth inhibition at 10 uM after 48 hrs by coulter counter analysis; settings: SK-MEL-5, 48 h, read-out: GI
SNB-19 = assay: Cytotoxicity against human SNB19 cells assessed as growth inhibition at 10 uM after 48 hrs by coulter counter analysis; settings: SNB-19, 48 h, read-out: GI
COLO 205 = assay: Cytotoxicity against human COLO205 cells assessed as growth inhibition at 10 uM after 48 hrs by coulter counter analysis; settings: COLO 205, 48 h, read-out: GI
[1] = Cytotoxicity against human NCI-ADR-RES cells assessed as growth inhibition at 10 uM after 48 hrs by coulter counter analysis; settings: read-out: GI
A498 = assay: Cytotoxicity against human A498 cells assessed as growth inhibition at 10 uM after 48 hrs by coulter counter analysis; settings: A498, 48 h, read-out: GI
SF-295 = assay: Cytotoxicity against human SF295 cells assessed as growth inhibition at 10 uM after 48 hrs by coulter counter analysis; settings: SF-295, 48 h, read-out: GI
SW-620 = assay: Cytotoxicity against human SW620 cells assessed as growth inhibition at 10 uM after 48 hrs by coulter counter analysis; settings: SW-620, 48 h, read-out: GI
A549 = assay: Cytotoxicity against human A549 cells assessed as growth inhibition at 10 uM after 48 hrs by coulter counter analysis; settings: A549, 48 h, read-out: GI
HOP-62 = assay: Cytotoxicity against human HOP62 cells assessed as growth inhibition at 10 uM after 48 hrs by coulter counter analysis; settings: HOP-62, 48 h, read-out: GI
RXF 393 = assay: Cytotoxicity against human RXF393 cells assessed as growth inhibition at 10 uM after 48 hrs by coulter counter analysis; settings: RXF 393, 48 h, read-out: GI
MDA-MB-468 = assay: Cytotoxicity against human MDA-MB-468 cells assessed as growth inhibition at 10 uM after 48 hrs by coulter counter analysis; settings: MDA-MB-468, 48 h, read-out: GI
HT-29 = assay: Cytotoxicity against human HT-29 cells assessed as growth inhibition at 10 uM after 48 hrs by coulter counter analysis; settings: HT-29, 48 h, read-out: GI
T47D = assay: Cytotoxicity against human T47D cells assessed as growth inhibition at 10 uM after 48 hrs by coulter counter analysis; settings: read-out: GI
LOX IMVI = assay: Cytotoxicity against human LOXIMVI cells assessed as growth inhibition at 10 uM after 48 hrs by coulter counter analysis; settings: read-out: GI
786-0 = assay: Cytotoxicity against human 786-0 cells assessed as growth inhibition at 10 uM after 48 hrs by coulter counter analysis; settings: 786-0, 48 h, read-out: GI
SNB-75 = assay: Cytotoxicity against human SNB75 cells assessed as growth inhibition at 10 uM after 48 hrs by coulter counter analysis; settings: SNB-75, 48 h, read-out: GI
MDA-MB-435 = assay: Cytotoxicity against human MDA-MB-435 cells assessed as growth inhibition at 10 uM after 48 hrs by coulter counter analysis; settings: MDA-MB-435, 48 h, read-out: GI
HCT-15 = assay: Cytotoxicity against human HCT15 cells assessed as growth inhibition at 10 uM after 48 hrs by coulter counter analysis; settings: HCT-15, 48 h, read-out: GI
MCF7 = assay: Cytotoxicity against human MCF7 cells assessed as growth inhibition at 10 uM after 48 hrs by coulter counter analysis; settings: MCF7, 48 h, read-out: GI
PC-3 = assay: Cytotoxicity against human PC3 cells assessed as growth inhibition at 10 uM after 48 hrs by coulter counter analysis; settings: PC-3, 48 h, read-out: GI
NCI-H460 = assay: Cytotoxicity against human NCI-H460 cells assessed as growth inhibition at 10 uM after 48 hrs by coulter counter analysis; settings: NCI-H460, 48 h, read-out: GI
SK-OV-3 = assay: Cytotoxicity against human SKOV3 cells assessed as growth inhibition at 10 uM after 48 hrs by coulter counter analysis; settings: SK-OV-3, 48 h, read-out: GI
OVCAR-5 = assay: Cytotoxicity against human OVCAR5 cells assessed as growth inhibition at 10 uM after 48 hrs by coulter counter analysis; settings: OVCAR-5, 48 h, read-out: GI
[2] = Cytotoxicity against human EKVX cells assessed as growth inhibition at 10 uM after 48 hrs by coulter counter analysis; settings: read-out: GI
HCT-116 = assay: Cytotoxicity against human HCT116 cells assessed as growth inhibition at 10 uM after 48 hrs by coulter counter analysis; settings: HCT-116, 48 h, read-out: GI
M14 = assay: Cytotoxicity against human M14 cells assessed as growth inhibition at 10 uM after 48 hrs by coulter counter analysis; settings: M14, 48 h, read-out: GI
UACC-257 = assay: Cytotoxicity against human UACC257 cells assessed as growth inhibition at 10 uM after 48 hrs by coulter counter analysis; settings: UACC-257, 48 h, read-out: GI
TK-10 = assay: Cytotoxicity against human TK10 cells assessed as growth inhibition at 10 uM after 48 hrs by coulter counter analysis; settings: TK-10, 48 h, read-out: GI
SF-539 = assay: Cytotoxicity against human SF539 cells assessed as growth inhibition at 10 uM after 48 hrs by coulter counter analysis; settings: SF-539, 48 h, read-out: GI
SF-268 = assay: Cytotoxicity against human SF268 cells assessed as growth inhibition at 10 uM after 48 hrs by coulter counter analysis; settings: SF-268, 48 h, read-out: GI
Malme-3M = assay: Cytotoxicity against human MALME-3M cells assessed as growth inhibition at 10 uM after 48 hrs by coulter counter analysis; settings: read-out: GI
KM12 = assay: Cytotoxicity against human KM12 cells assessed as growth inhibition at 10 uM after 48 hrs by coulter counter analysis; settings: KM12, 48 h, read-out: GI
OVCAR-4 = assay: Cytotoxicity against human OVCAR4 cells assessed as growth inhibition at 10 uM after 48 hrs by coulter counter analysis; settings: OVCAR-4, 48 h, read-out: GI

O=C(CSc1nc2ccccc2c(=O)n1CCc1ccccc1)NCc1ccccc1
inhibition of growth at 10 µM (UO-31): 33%
inhibition of growth at 10 µM (U-251): 24%
inhibition of growth at 10 µM (OVCAR-8): 40%
inhibition of growth at 10 µM (HCC 2998): < 10%
inhibition of growth at 10 µM (SK-MEL-5): 22%
inhibition of growth at 10 µM (SNB-19): 17%
inhibition of growth at 10 µM (COLO 205): < 10%
inhibition of growth at 10 µM [1]: 19%
inhibition of growth at 10 µM (A498): < 10%
inhibition of growth at 10 µM (SF-295): 27%
inhibition of growth at 10 µM (SW-620): < 10%
inhibition of growth at 10 µM (A549): 17%
inhibition of growth at 10 µM (HOP-62): 36%
inhibition of growth at 10 µM (RXF 393): 16%
inhibition of growth at 10 µM (MDA-MB-468): < 10%
inhibition of growth at 10 µM (HT-29): < 10%
inhibition of growth at 10 µM (T47D): 20%
inhibition of growth at 10 µM (LOX IMVI): 17%
inhibition of growth at 10 µM (786-0): 15%
inhibition of growth at 10 µM (SNB-75): 38%
inhibition of growth at 10 µM (MDA-MB-435): 19%
inhibition of growth at 10 µM (HCT-15): 20%
inhibition of growth at 10 µM (MCF7): 21%
inhibition of growth at 10 µM (PC-3): 29%
inhibition of growth at 10 µM (NCI-H460): 29%
inhibition of growth at 10 µM (SK-OV-3): 14%
inhibition of growth at 10 µM (OVCAR-5): < 10%
inhibition of growth at 10 µM [2]: 25%
inhibition of growth at 10 µM (HCT-116): 27%
inhibition of growth at 10 µM (M14): 14%
inhibition of growth at 10 µM (UACC-257): < 10%
inhibition of growth at 10 µM (TK-10): 20%
inhibition of growth at 10 µM (SF-539): 38%
inhibition of growth at 10 µM (SF-268): 28%
inhibition of growth at 10 µM (Malme-3M): 14%
inhibition of growth at 10 µM (KM12): < 10%
inhibition of growth at 10 µM (OVCAR-4): 13%
